From patent US6753337B2, “Alkynyl containing hydroxamic acid compounds as matrix metalloproteinase/tace inhibitors” (Wyeth Holdings Corporation, priority 1999, dated 2004)

Columns and labels:
[1] = target: TNF-α converting enzyme (TACE) (Homo sapiens, UniProt P78536); experiment: Test procedure for measuring TACE inhibition (fluorescent peptidyl substrate); format: biochemical
Summary of the method: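 TACE (1 μg/mL final) preincubated 10 min at room temperature with 1 μM compound in 10 mM Tris pH 7.4, 10% glycerol, DMSO <1%. Treated rates tested against control by Dunnett's test (p<0.05).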

MMP-13 = MMP-13 (Homo sapiens, UniProt P45452); experiment: MMP-13 inhibition (thiopeptide or fluorescent peptide substrate); format: biochemical; conditions: read-out: MMP13 IC50
Summary of the method: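 Human recombinant MMP-1, MMP-9 or MMP-13 was run either with a thiopeptide substrate plus DTNB (1 mM working dilution) in 50 mM HEPES pH 7.5, 5 mM CaCl2 (colorimetric), or with a quenched fluorescent peptide in HCBC buffer pH 7.0. Reactions started with substrate; the rate slope was compared with control by Dunnett's test.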

THP-1 cells = experiment: Human monocytic THP-1 cell differentiation assay for soluble proteins (THP-1 soluble protein assay); format: cell-based; conditions: LPS-stimulated THP-1 cells, soluble protein not given

TNF-α converting enzyme (TACE), sequence (P78536 215-824): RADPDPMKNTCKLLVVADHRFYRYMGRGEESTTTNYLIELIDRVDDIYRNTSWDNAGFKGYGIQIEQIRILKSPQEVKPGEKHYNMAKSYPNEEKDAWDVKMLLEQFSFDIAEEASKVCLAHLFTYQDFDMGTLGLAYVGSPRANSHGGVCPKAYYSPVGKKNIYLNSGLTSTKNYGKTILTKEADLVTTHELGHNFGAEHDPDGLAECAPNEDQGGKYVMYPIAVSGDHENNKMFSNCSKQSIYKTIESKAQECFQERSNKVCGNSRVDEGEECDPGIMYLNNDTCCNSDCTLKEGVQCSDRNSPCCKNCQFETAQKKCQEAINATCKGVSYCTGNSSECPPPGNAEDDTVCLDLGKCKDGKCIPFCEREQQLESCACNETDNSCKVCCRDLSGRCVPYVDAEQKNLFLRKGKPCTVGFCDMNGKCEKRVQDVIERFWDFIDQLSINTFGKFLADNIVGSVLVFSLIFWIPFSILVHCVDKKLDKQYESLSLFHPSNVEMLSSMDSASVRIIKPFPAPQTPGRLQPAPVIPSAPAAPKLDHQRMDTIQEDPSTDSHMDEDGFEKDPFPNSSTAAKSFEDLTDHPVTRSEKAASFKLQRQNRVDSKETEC

Row | IC50 [1] [nM] | IC50 (MMP-13) [nM] | inhibition at 1 µM [1] [%] | Compound | inhibition at 3 µM (THP-1 cells) [%]
1 | 115 | 499 | – | CC#CCOc1ccc(S(=O)(=O)C2(C(=O)NO)CCN(S(=O)(=O)C(F)(F)F)CC2)cc1 [Example 69, 4-(4-But-2-ynyloxybenzenesulfonyl)-N-hydroxy-1-[(trifluoromethyl)-sulfonyl]-4-piperidinecarboxamide] | 14
2 | 19 | 279 | – | CC#CCOc1ccc(S(=O)(=O)CC2(C(=O)NO)CCN(C(=O)NC(C)(C)C)CC2)cc1 [Example 38] | 53
3 | 86.2 | 64.4 | – | CC#CCOc1ccc(S(=O)(=O)C2(C(=O)NO)CCN(Cc3cccnc3)CC2)cc1 [Example 23, 4-{[4-(2-butynyloxy)phenyl]sulfonyl}-N-hydroxy-1-(3-pyridinylmethyl)-4-piperidine carboxamide] | 62
4 | 180 | 463 | – | CC#CCOc1ccc(S(=O)(=O)C2(C(=O)NO)CCCN(CC)C2)cc1 (stereo not drawn) [Example 24, 3-{[4-(2-Butynyloxy)phenyl]sulfonyl}-1-ethyl-N-hydroxy-3-piperidinecarboxamide] | 41
5 | 33 | 102 | – | CC#CCOc1ccc(S(=O)(=O)CC2(C(=O)NO)CCN(C(=O)OC(C)(C)C)CC2)cc1 [Example 34, tert-Butyl-4-({[4-(but-2-ynyloxy)phenyl]sulfonyl}methyl)-4-[(hydroxyamino)-carbonyl]piperidine-1-carboxylate] | 68
6 | 12 | 1630 | – | CC#CCOc1ccc(S(=O)(=O)CC2(C(=O)NO)CCN(C(=O)C3(C)COC(C)(C)OC3)CC2)cc1 [Example 42, 4-({[4-(2-Butynyloxy)phenyl]sulfonyl}methyl)-N-hydroxy-1-[(2,2,5-trimethyl-1,3-dioxan-5-yl)carbonyl]-4-piperidinecarboxamide] | 78
7 | 77 | 503 | – | CC#CCOc1ccc(S(=O)(=O)C2(C(=O)NO)CCN(C(=O)OCC)CC2)cc1 [Example 68, Ethyl 4-(4-but-2-ynyloxybenzenesulfonyl)-4-[(hydroxyamino)-carbonyl]-1-piperidinecarboxylate] | 10
8 | – | 1500 | 41.8 | O=C(NO)C1(S(=O)(=O)c2ccc(OCC#CCN3CCCCC3)cc2)CCN(Cc2ccc(Br)cc2)CC1 [Example 12, 1-(4-bromo-benzyl)-4-[4-(4-piperidin-1-yl-but-2-ynyloxy)-benzenesulfonyl]-piperidine-4-carboxylic acid hydroxyamide] | 58
9 | 102 | 2910 | – | CC#CCOc1ccc(SCC2(C(=O)NO)CCN(C(=O)OC(C)(C)C)CC2)cc1 [Example 30, tert-butyl-4-({[4-(2-butynyloxy)phenyl]sulfanyl}methyl)-4-[(hydroxyamino)-carbonyl]-1-piperidinecarboxylate] | 0
